The target of one data set is T1, Adenosine receptor A2b (Homo sapiens, UniProt P29275).
T1 sequence (P29275 whole entry): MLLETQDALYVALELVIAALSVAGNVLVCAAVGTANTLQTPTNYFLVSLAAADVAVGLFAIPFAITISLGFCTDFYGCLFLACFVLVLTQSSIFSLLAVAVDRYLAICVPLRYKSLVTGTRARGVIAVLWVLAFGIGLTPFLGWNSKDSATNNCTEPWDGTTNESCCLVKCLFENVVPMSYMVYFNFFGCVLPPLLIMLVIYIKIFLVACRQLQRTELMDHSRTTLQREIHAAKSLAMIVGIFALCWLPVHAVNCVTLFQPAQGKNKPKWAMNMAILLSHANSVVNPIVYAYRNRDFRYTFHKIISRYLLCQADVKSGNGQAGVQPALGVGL
Briefly: Displacement of [3H]DPCPX from human adenosine A2B receptor expressed in HEK293 cells after 60 mins by filtration binding assay. The data set is classed as cell-based. Background: Loss of bound radioactivity is the signal in a displacement assay; it reports binding, not function.

Another data set concerns the target Adenosine receptor A2a (Homo sapiens, UniProt P29274). Briefly: Displacement of [3H]ZM241385 from human adenosine A2A receptor expressed in human HeLa cells after 1 hr by scintillation proximity assay. The data set is classed as cell-based.
A further data set addresses T2, Adenosine receptor A1 (Homo sapiens, UniProt P30542).
T2 sequence (P30542 whole entry): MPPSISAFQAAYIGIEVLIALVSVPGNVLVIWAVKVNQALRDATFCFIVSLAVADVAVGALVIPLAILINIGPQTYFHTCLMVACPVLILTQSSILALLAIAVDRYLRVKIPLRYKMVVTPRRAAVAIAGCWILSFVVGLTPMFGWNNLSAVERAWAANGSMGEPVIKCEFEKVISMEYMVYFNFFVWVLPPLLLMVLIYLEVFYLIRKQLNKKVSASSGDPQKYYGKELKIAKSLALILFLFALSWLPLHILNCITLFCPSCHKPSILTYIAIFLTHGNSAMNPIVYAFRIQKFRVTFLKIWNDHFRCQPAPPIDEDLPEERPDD
Briefly: Displacement of [3H]DPCPX from human adenosine A1 receptor expressed in CHO cells after 90 mins by filtration binding assay. The data set is classed as cell-based.

In data set [1] the target is T3, Adenosine receptor A3 (Homo sapiens) (UniProt P0DMS8).
T3 sequence (whole entry): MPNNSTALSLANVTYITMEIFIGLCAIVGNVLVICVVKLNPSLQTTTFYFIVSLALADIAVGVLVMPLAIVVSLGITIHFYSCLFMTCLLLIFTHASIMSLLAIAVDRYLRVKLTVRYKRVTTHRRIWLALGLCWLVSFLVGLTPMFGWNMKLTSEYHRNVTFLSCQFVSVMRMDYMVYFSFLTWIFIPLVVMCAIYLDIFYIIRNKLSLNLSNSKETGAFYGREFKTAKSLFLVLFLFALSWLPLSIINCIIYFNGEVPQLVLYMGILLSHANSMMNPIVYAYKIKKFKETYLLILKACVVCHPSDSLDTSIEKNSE
Briefly: Inhibition of [3H]NECA binding to human adenosine A3 receptor expressed in human HeLa cells at 1 uM after 3 hrs by filtration binding assay. The data set is classed as cell-based.

The nature of data set [2]: Metabolic stability in rat liver microsomes assessed as turnover at 5 uM after 30 mins in absence of NADPH. As to conditions: read-out: Stability. The data set is classed as ADME, Microsome. In general terms: Microsomes from liver hold many membrane-bound enzymes, among them those of drug oxidation.
Data set [3] can be described thus: Apparent permeability across human Caco-2 cells at 12.5 uM. The data set is classed as ADME, cell-based. As to conditions: read-out: permeability.
Data set [4] in a line: Thermodynamic solubility at pH 7.4. The data set is classed as physicochemical. As to conditions: buffer.
Data set [5] is described as follows: Terminal half life in rat at 1 mg/kg, iv. The data set is classed as ADME, organism-based. On the set-up: dose 1 mg/kg, route intravenous. As to conditions: in vivo.
Data set [6] in a line: Cmax in rat at 1 mg/kg, iv. As to conditions: in vivo. The data set is classed as ADME, organism-based. Also noted: dose 1 mg/kg, route intravenous.
The nature of data set [7]: Clearance in rat at 1 mg/kg, iv. As to conditions: in vivo. The data set is classed as ADME, organism-based. Also noted: dose 1 mg/kg, route intravenous.
Data set [8] in a line: AUC (0 to infinity) in rat at 1 mg/kg, iv. The data set is classed as ADME, organism-based. Also noted: time infinity, dose 1 mg/kg, route intravenous. As to conditions: plasma.
A short description of data set [9]: Volume of distribution at steady state in rat at 1 mg/kg, iv. The data set is classed as ADME, organism-based. As to conditions: in vivo, read-out: Vdss. Also noted: dose 1 mg/kg, route intravenous.
The nature of data set [10]: Oral bioavailability in rat at 10 mg/kg. The data set is classed as ADME, organism-based. As to conditions: in vivo.
A further data set concerns the target T4, Adenosine receptor A3 (Homo sapiens, UniProt P0DMS8).
T4 sequence (P0DMS8 whole entry): T3 sequence (whole entry)
Briefly: Displacement of [3H]NECA from human adenosine A3 receptor expressed in human HeLa cells after 3 hrs by filtration binding assay. The data set is classed as cell-based.

Each structure is given as a SMILES string. In brackets after ≈: the same amount, converted by molar mass.

Sequence of Adenosine receptor A2a (P29274 whole entry): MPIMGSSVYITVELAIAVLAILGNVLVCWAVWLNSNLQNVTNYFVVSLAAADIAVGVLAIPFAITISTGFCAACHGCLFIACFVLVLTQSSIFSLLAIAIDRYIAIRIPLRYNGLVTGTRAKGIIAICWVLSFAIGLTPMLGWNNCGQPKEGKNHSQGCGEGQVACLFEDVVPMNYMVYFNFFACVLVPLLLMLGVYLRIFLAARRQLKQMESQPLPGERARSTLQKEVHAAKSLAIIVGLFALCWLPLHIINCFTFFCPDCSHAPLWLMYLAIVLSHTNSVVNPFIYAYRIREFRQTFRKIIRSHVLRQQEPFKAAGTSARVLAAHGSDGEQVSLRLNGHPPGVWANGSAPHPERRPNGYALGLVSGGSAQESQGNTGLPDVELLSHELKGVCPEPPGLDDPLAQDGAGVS

Usually Ki stands for the dissociation constant of the complex between target and ligand, obtained from inhibition or displacement. The term inhibition denotes the percentage by which the read-out fell short of the control. Take `c1coc(-c2nc3[nH]cnc3cc2-c2ccncn2)c1`: the Ki at Adenosine receptor A2b turned out to be 21 nM; on Adenosine receptor A2a, 3600 nM; on Adenosine receptor A1 it was 717 nM. For the same molecule, the inhibition in [1] was found to be 0%. The metabolised at 0.5 h, 5 µM in data set [2] was 10%. Further, the Papp at 12.5 µM in [3] turned out to be 23 ×10⁻⁶ cm/s.

A word on the solubility (thermodynamic): it is the concentration in solution at equilibrium with solid. In general, half-life refers to how long it takes for the measured level to halve. A high value points to slow decline. As usually defined, the Cmax is the highest concentration seen after dosing. By clearance is commonly meant the rate of elimination divided by the concentration. A low value points to a low capacity for elimination. A word on the AUC(0-inf): it is total exposure, with the tail of the curve extrapolated. Read a high AUC(0-inf) as high exposure. Usually bioavailability stands for the share of a dose that reaches the circulation, judged against a reference dose that is usually intravenous. Read a high bioavailability as much systemic uptake. As for `O=c1[nH]c2cc(-c3ccncn3)c(-c3ccco3)nc2[nH]1`, the results for the Ki at Adenosine receptor A2b, on Adenosine receptor A2a and on Adenosine receptor A1 were 6 nM, 769 nM and 317 nM, respectively. The molecule further came in with an inhibition in [1] of 18%. In addition, the metabolised at 0.5 h, 5 µM in data set [2] stood at 15%. In data set [3], the Papp at 12.5 µM amounted to 40 ×10⁻⁶ cm/s. The molecule also showed a thermodynamic solubility in [4] of 48 µg/mL (≈ 172 µM). This molecule also gave a half-life in data set [5] of 60 min. The molecule further showed a maximum concentration (Cmax) in data set [6] of 762 ng/mL. The molecule further had a clearance in data set [7] of 50 mL/min/kg. This molecule yielded an AUC(0-inf) in [8] of 350 ng·h/mL. For the same molecule, the Vd in data set [9] worked out at 1 L/kg. The same molecule registered a bioavailability in [10] of 20%.

Consider `Nc1n[nH]c2nc(-c3ccco3)c(-c3ccncn3)cc12`, for which the Ki on Adenosine receptor A2b was 8 nM; on Adenosine receptor A2a it was 858 nM; at Adenosine receptor A1, 357 nM. The molecule also yielded an inhibition in data set [1] of 15%. For the same molecule, in data set [2], the metabolised at 0.5 h, 5 µM amounted to 6%. In addition, the Papp at 12.5 µM in [3] turned out to be 24 ×10⁻⁶ cm/s. The solubility (thermodynamic) in data set [4] came to 204 µg/mL (≈ 733 µM). The same molecule had a half-life in data set [5] of 24 min. The Cmax in [6] amounted to 397 ng/mL. This molecule also gave a clearance in data set [7] of 102 mL/min/kg. This molecule displayed a total exposure AUC(0-inf) in [8] of 164 ng·h/mL. Further, the Vd in data set [9] came out at 3.7 L/kg.

On to `c1coc(-c2nc3[nH]ncc3cc2-c2ccncn2)c1`, for which the Ki on Adenosine receptor A2b worked out at 23 nM; on Adenosine receptor A2a, 1660 nM; on Adenosine receptor A1, 478 nM. Moreover, in [1], the inhibition was found to be 2%. In addition, the metabolised at 0.5 h, 5 µM in data set [2] stood at 17%. Besides, the Papp at 12.5 µM in data set [3] was 39 ×10⁻⁶ cm/s. Also, the solubility (thermodynamic) in [4] turned out to be 296 µg/mL (≈ 1120 µM). The same molecule had a half-life in [5] of 36 min. Besides, the highest concentration (Cmax) in data set [6] was 1050 ng/mL. The clearance in data set [7] is 23.3 mL/min/kg. The area under the curve AUC(0-inf) in data set [8] was found to be 736 ng·h/mL. Moreover, the Vd in data set [9] was found to be 0.8 L/kg.

With `O=c1[nH]c(=O)c2cc(-c3ccncn3)c(-c3ccco3)nc2[nH]1`, the inhibition constant Ki stood at 1 nM at Adenosine receptor A2b, 181 nM at Adenosine receptor A2a, 1730 nM on Adenosine receptor A1 and 6270 nM at Adenosine receptor A3. The metabolised at 0.5 h, 5 µM in [2] is 0%. Also, in data set [3], the Papp at 12.5 µM worked out at 20 ×10⁻⁶ cm/s. Further, the solubility (thermodynamic) in [4] came to 61 µg/mL (≈ 199 µM). In data set [5], this molecule gave a half-life of 24 min. In [6], this molecule gave a peak concentration (Cmax) of 1680 ng/mL. For the same molecule, the clearance in data set [7] was 20 mL/min/kg. This molecule displayed an AUC(0-inf) in data set [8] of 880 ng·h/mL. In addition, in data set [9], the Vd was 0.75 L/kg.

Take `Cn1c(=O)[nH]c2nc(-c3ccco3)c(-c3ccncn3)cc21`: the Ki on Adenosine receptor A2b amounted to 11 nM; on Adenosine receptor A2a it was 2130 nM; at Adenosine receptor A1, 2440 nM. For the same molecule, the inhibition in [1] came to 17%. For the same molecule, the metabolised at 0.5 h, 5 µM in [2] worked out at 8%. For the same molecule, the Papp at 12.5 µM in data set [3] stood at 32 ×10⁻⁶ cm/s.

`O=C(Nc1ccc(-c2ccncn2)c(-c2ccco2)n1)C1CC1`: in data set [3], the Papp at 12.5 µM stood at 45 ×10⁻⁶ cm/s.

For the molecule `c1coc(-c2nc3[nH]ccc3cc2-c2ccncn2)c1`, the inhibitory constant (Ki) at Adenosine receptor A2b turned out to be 13 nM; at Adenosine receptor A2a it was 619 nM; on Adenosine receptor A1 it was 252 nM. Also, the inhibition in data set [1] amounted to 7%. Besides, in [2], the metabolised at 0.5 h, 5 µM was determined as 88%. Also, the Papp at 12.5 µM in data set [3] was found to be 40 ×10⁻⁶ cm/s.

Consider `O=c1[nH][nH]c2nc(-c3ccco3)c(-c3ccncn3)cc12`, for which the inhibition constant (Ki) at Adenosine receptor A2b was found to be 3 nM; on Adenosine receptor A2a, 177 nM; on Adenosine receptor A1, 82 nM. The molecule also registered an inhibition in data set [1] of 2%. Further, in [2], the metabolised at 0.5 h, 5 µM came to 7%. Also, the Papp at 12.5 µM in [3] turned out to be 3.5 ×10⁻⁶ cm/s. For the same molecule, in data set [5], the half-life was 24 min. The molecule also showed a Cmax in data set [6] of 1330 ng/mL. Besides, in [7], the clearance was 33.3 mL/min/kg. The molecule also gave an AUC(0-inf) in [8] of 504 ng·h/mL. In addition, in [9], the Vd was 0.6 L/kg.

These data come from ChEMBL document CHEMBL1154955, “Discovery of potent and selective bicyclic A(2B) adenosine receptor antagonists via bioisosteric amide replacement” (Bioorg Med Chem Lett, 2010).
